Measured values reported in patent US20240050428A1 (Cullgen (Shanghai), Inc., priority 2020, published 2024).
pIC50: −log10 of the molar value. Read-outs that look alike come from different tables or passages of the source.

What was measured:
MOLM-13 cells = assay: Cell viability assay (CellTiter-Glo) in MOLM-13 cells, alone or with gilteritinib; assay type: cell-based; details: Homo sapiens, MOLM-13, 72 h, MOLM-13 cells, three days, CellTiter-Glo
MV4;11 cells = assay: Cell viability assay (CellTiter-Glo) in MV4;11 cells, alone or with gilteritinib; assay type: cell-based; details: Homo sapiens, MV4-11, 72 h, MV4;11 cells, three days, CellTiter-Glo, read-out: MV4
[1] = compound alone (without gilteritinib), read-out: MOLM-13 IC50
[2] = with gilteritinib 20 nM, read-out: MOLM-13 IC50 gilteritinib
[3] = compound alone (without gilteritinib), 11 IC50
[4] = with gilteritinib 10 nM, 11 IC50 gilteritinib

Structure (SMILES) | pIC50 (MOLM-13 cells; [1]) | pIC50 (MOLM-13 cells; [2]) | pIC50 (MV4;11 cells; [3]) | pIC50 (MV4;11 cells; [4])
N#Cc1ccc2ncc(-c3cnn([C@H]4C[C@H](CCCNc5ccc6c(c5)C(=O)N(C5CCC(=O)NC5=O)C6=O)C4)c3)nc2c1 (stereo partly drawn) [GS-198, 3-(1-(trans-3-(3-((2-(2,6-Dioxopiperidin-3-yl)-1,3-dioxoisoindolin-5-yl)amino)propyl)cyclobutyl)-1H-pyrazol-4-yl)quinoxaline-6-carbonitrile] | 6.00 to 7.00 | > 8.00 | 7.00 to 8.00 | 7.00 to 8.00
O=C1CCC(N2C(=O)c3ccc(NCCC[C@H]4C[C@H](n5cc(-c6cnc7ccc(C8CCNCC8)cc7n6)cn5)C4)cc3C2=O)C(=O)N1 (stereo partly drawn) [GS-199, 2-(2,6-Dioxopiperidin-3-yl)-5-((3-(trans-3-(4-(7-(piperidin-4-yl)quinoxalin-2-yl)-1H-pyrazol-1-yl)cyclobutyl)propyl)amino)isoindoline-1,3-dione] | 6.00 to 7.00 | > 8.00 | 7.00 to 8.00 | > 8.00
Cc1nn([C@H]2C[C@H](CNc3ccc4c(c3)C(=O)N(C3CCC(=O)NC3=O)C4=O)C2)cc1-c1cnc2ccccc2n1 (stereo partly drawn) [GS-200, 2-(2,6-Dioxopiperidin-3-yl)-5-(((trans-3-(3-methyl-4-(quinoxalin-2-yl)-1H-pyrazol-1-yl)cyclobutyl)methyl)amino)isoindoline-1,3-dione] | 6.00 to 7.00 | 7.00 to 8.00 | 6.00 to 7.00 | 7.00 to 8.00
O=C1CCC(N2C(=O)c3ccc(NCCC[C@H]4C[C@H](n5cc(-c6cnc7ccc(F)cc7n6)cn5)C4)cc3C2=O)C(=O)N1 (stereo partly drawn) [GS-201, 2-(2,6-Dioxopiperidin-3-yl)-5-((3-(trans-3-(4-(7-fluoroquinoxalin-2-yl)-1H-pyrazol-1-yl)cyclobutyl)propyl)amino)isoindoline-1,3-dione] | 6.00 to 7.00 | 7.00 to 8.00 | 6.00 to 7.00 | 7.00 to 8.00
O=C1CCC(N2C(=O)c3ccc(NCCC[C@H]4C[C@H](n5cc(-c6cnc7ccc(OC8CC8)cc7n6)cn5)C4)cc3C2=O)C(=O)N1 (stereo partly drawn) [GS-202, 5-((3-(trans-3-(4-(7-Cyclopropoxyquinoxalin-2-yl)-1H-pyrazol-1-yl)cyclobutyl)propyl)amino)-2-(2,6-dioxopiperidin-3-yl)isoindoline-1,3-dione] | 6.00 to 7.00 | > 8.00 | 7.00 to 8.00 | > 8.00
O=C1CCC(N2C(=O)c3ccc(NCCC[C@H]4C[C@H](n5cc(-c6cnc7ccc(N8C[C@@H]9C[C@H]8CN9)cc7n6)cn5)C4)cc3C2=O)C(=O)N1 (stereo partly drawn) [GS-203, 5-((3-(trans-3-(4-(7-((1S,4S)-2,5-Diazabicyclo[2.2.1]heptan-2-yl)quinoxalin-2-yl)-1H-pyrazol-1-yl)cyclobutyl)propyl)amino)-2-(2,6-dioxopiperidin-3-yl)isoindoline-1,3-dione] | < 6.00 | 7.00 to 8.00 | 6.00 to 7.00 | 7.00 to 8.00
O=C1CCC(N2C(=O)c3ccc(NCCC[C@H]4C[C@H](n5cc(-c6cnc7ccc(OC8CCNCC8)cc7n6)cn5)C4)cc3C2=O)C(=O)N1 (stereo partly drawn) [GS-204, 2-(2,6-Dioxopiperidin-3-yl)-5-((3-(trans-3-(4-(7-(piperidin-4-yloxy)quinoxalin-2-yl)-1H-pyrazol-1-yl)cyclobutyl)propyl)amino)isoindoline-1,3-dione] | 6.00 to 7.00 | > 8.00 | 7.00 to 8.00 | 7.00 to 8.00
O=C1CCC(N2C(=O)c3ccc(NCCC4CC(C(=O)N5CCC(n6cc(-c7cnc8ccccc8n7)cn6)CC5)C4)cc3C2=O)C(=O)N1 (stereo not drawn) [GS-205, 2-(2,6-Dioxopiperidin-3-yl)-5-((2-(3-(4-(4-(quinoxalin-2-yl)-1H-pyrazol-1-yl)piperidine-1-carbonyl)cyclobutyl)ethyl)amino)isoindoline-1,3-dione] | 7.00 to 8.00 | > 8.00 | 7.00 to 8.00 | > 8.00
O=C1CCC(N2C(=O)c3ccc(NCCC[C@H]4C[C@H](n5cc(-c6cnc7ccc(Cl)cc7n6)cn5)C4)cc3C2=O)C(=O)N1 (stereo partly drawn) [GS-206, 5-((3-(trans-3-(4-(7-Chloroquinoxalin-2-yl)-1H-pyrazol-1-yl)cyclobutyl)propyl)amino)-2-(2,6-dioxopiperidin-3-yl)isoindoline-1,3-dione] | 6.00 to 7.00 | 7.00 to 8.00 | 7.00 to 8.00 | 7.00 to 8.00
O=C1CCC(N2C(=O)c3ccc(NCCC[C@H]4C[C@@H](n5cc(-c6cnc7ccc(N8CCOCC8)cc7n6)cn5)C4)cc3C2=O)C(=O)N1 (stereo partly drawn) [GS-207, 2-(2,6-Dioxopiperidin-3-yl)-5-((3-(cis-3-(4-(7-morpholinoquinoxalin-2-yl)-1H-pyrazol-1-yl)cyclobutyl)propyl)amino)isoindoline-1,3-dione] | 6.00 to 7.00 | > 8.00 | 6.00 to 7.00 | 7.00 to 8.00
O=C1CCC(N2C(=O)c3ccc(NCCC[C@H]4C[C@H](n5cc(-c6cnc7ccc(CN8CCOCC8)cc7n6)cn5)C4)cc3C2=O)C(=O)N1 (stereo partly drawn) [GS-208, 2-(2,6-Dioxopiperidin-3-yl)-5-((3-(trans-3-(4-(7-(morpholinomethyl)quinoxalin-2-yl)-1H-pyrazol-1-yl)cyclobutyl)propyl)amino)isoindoline-1,3-dione] | 6.00 to 7.00 | 7.00 to 8.00 | 6.00 to 7.00 | 7.00 to 8.00
O=C1CCC(N2C(=O)c3ccc(NCCC[C@H]4C[C@H](n5cc(-c6cnc7ccc(CN8CCNCC8)cc7n6)cn5)C4)cc3C2=O)C(=O)N1 (stereo partly drawn) [GS-209, 2-(2,6-Dioxopiperidin-3-yl)-5-((3-(trans-3-(4-(7-(piperazin-1-ylmethyl)quinoxalin-2-yl)-1H-pyrazol-1-yl)cyclobutyl)propyl)amino)isoindoline-1,3-dione] | 6.00 to 7.00 | 7.00 to 8.00 | 6.00 to 7.00 | 7.00 to 8.00
O=C1CCC(N2C(=O)c3ccc(NCCC[C@H]4C[C@@H](n5cc(-c6cnc7ccc(C8CCOCC8)cc7n6)c(C(F)(F)F)n5)C4)cc3C2=O)C(=O)N1 (stereo partly drawn) [GS-210, 2-(2,6-Dioxopiperidin-3-yl)-5-((3-(cis-3-(4-(7-(tetrahydro-2H-pyran-4-yl)quinoxalin-2-yl)-3-(trifluoromethyl)-1H-pyrazol-1-yl)cyclobutyl)propyl)amino)isoindoline-1,3-dione] | > 8.00 | > 8.00 | > 8.00 | > 8.00
O=C1CCC(N2C(=O)c3ccc(NCCCCC(=O)N4CCC(n5cc(-c6cnc7ccc(N8CCNCC8)cc7n6)c(C6CC6)n5)CC4)cc3C2=O)C(=O)N1 (stereo not drawn) [GS-211, 5-((5-(4-(3-Cyclopropyl-4-(7-(piperazin-1-yl)quinoxalin-2-yl)-1H-pyrazol-1-yl)piperidin-1-yl)-5-oxopentyl)amino)-2-(2,6-dioxopiperidin-3-yl)isoindoline-1,3-dione] | 7.00 to 8.00 | > 8.00 | 7.00 to 8.00 | > 8.00
O=C1CCC(N2C(=O)c3ccc(NCCC[C@H]4C[C@H](n5cc(-c6cnc7ccc(C(F)(F)F)cc7n6)cn5)C4)cc3C2=O)C(=O)N1 (stereo partly drawn) [GS-212, 2-(2,6-Dioxopiperidin-3-yl)-5-((3-(trans-3-(4-(7-(trifluoromethyl)quinoxalin-2-yl)-1H-pyrazol-1-yl)cyclobutyl)propyl)amino)isoindoline-1,3-dione] | 7.00 to 8.00 | 7.00 to 8.00 | 7.00 to 8.00 | 7.00 to 8.00
